Data set [1] deals with ivacaftor metabolism in rat liver microsomes (RLM). The experiment in a line: Screening of 79 drugs (100 μM) for inhibition of ivacaftor metabolism in RLM incubation. Type of data set: in vitro ADME. The settings on record: each drug 100 μM, 0.3 mg/mL RLM. On the procedure: The supernatants were centrifuged at 100,000 × g for 1 h, and the pellets were resuspended with cold […] PBS. Protein concentrations were determined by Bradford Protein Assay Kit (Thermo Scientific, Waltham, MA, United States).
This system was made up of 200 μL of incubation solution consisting of 0.3 mg/mL RLM or 0.4 mg/mL HLM, 1.0 mM NADPH, pH 7.4 PBS and ivacaftor. […] The solution should be pre-incubated at 37°C for 5 min before adding NADPH. Following the addition of NADPH, the mixture should be incubated for 40 min. The reaction should then be stopped at −80°C. After the enzyme reaction was completed, 20 μL of 500 ng/mL IS solution and 400 μL acetonitrile (protein precipitating agent) were added to the mixture. The mixture was vortexed for 2 min and then centrifuged at 13,000 rpm for 10 min. After centrifugation, 100 μL of the supernatant was quantified using UPLC-MS/MS.
Each drug was used at a concentration of 100 μM as the inhibitor. The culture system was 200 μL and included 0.3 mg/mL RLM, 1.0 mM NADPH, PBS, ivacaftor, and inhibitor. The reaction procedure was the same as the enzyme reaction mentioned above Section 2.2.

The target in data set [2] is ivacaftor metabolism in rat liver microsomes (RLM). The data set is described as follows: IC50 and inhibition mechanism (Lineweaver-Burk, Ki, αKi) on ivacaftor metabolism in RLM. In kind it is in vitro ADME. The settings on record: for IC50: ivacaftor 8.8 μM; for Inhibition type: Lineweaver-Burk plots. On the procedure: (§1) This system was made up of 200 μL of incubation solution consisting of 0.3 mg/mL RLM or 0.4 mg/mL HLM, 1.0 mM NADPH, pH 7.4 PBS and ivacaftor. […] In HLM, a range of concentrations (0.1, 1, 2, 4, 12, 25 μM) of ivacaftor was used to determine Km. The solution should be pre-incubated at 37°C for 5 min before adding NADPH. Following the addition of NADPH, the mixture should be incubated for 40 min. The reaction should then be stopped at −80°C. After the enzyme reaction was completed, 20 μL of 500 ng/mL IS solution and 400 μL acetonitrile (protein precipitating agent) were added to the mixture. The mixture was vortexed for 2 min and then centrifuged at 13,000 rpm for 10 min. After centrifugation, 100 μL of the supernatant was quantified using UPLC-MS/MS.
(§2) The IC50 values for the inhibitory effects of nisoldipine and nimodipine on ivacaftor in HLM were also determined. […] The final concentration of DMSO in the culture system is less than 1%. […] The incubation and post-treatment procedures were consistent with the enzyme incubation of ivacaftor described above Section 2.2.
(§3) The incubation and post-treatment procedures were consistent with the enzyme incubation of ivacaftor described above Section 2.2.
(§4) Km values, IC50 values, Lineweaver-Burk plots and mean plasma concentration-time curves were all generated using GraphPad Prism 9.0 software (GraphPad Software, Inc., United States). Pharmacokinetic parameters of ivacaftor and M1 were obtained by analyzing them using the non-compartmental model of Drug and Statistics (DAS) (version 3.0, Mathematical Pharmacology Professional Committee of China, Shanghai, China), and a one-way ANOVA was performed to compare the pharmacokinetics of the three groups of rats using SPSS (version 26.0; SPSS Inc., Chicago, IL, United States). A P-value <0.05 was considered statistically significant. Data were represented as mean ± standard deviation (SD).

Data set [3] relates to human liver microsomes (HLM). To be noted: read-out: Km (Michaelis-Menten constant); HLM 0.4 mg/mL, 40 min incubation. On the procedure: as §1
as §4, with “Data were represented as mean ± standard deviation (SD).” left out

The subject of data set [4] is rat liver microsomes (RLM). The settings on record: read-out: Km (Michaelis-Menten constant); RLM 0.3 mg/mL, 40 min incubation. On the procedure: as §1
as §4, with “Data were represented as mean ± standard deviation (SD).” left out

A short description of data set [5]: Pharmacokinetics of ivacaftor and M1 in Sprague-Dawley rats with or without nisoldipine or nimodipine. In kind it is in vivo. To be noted: male, rat, plasma, po, ivacaftor 10 mg/kg gavage, nisoldipine 1 mg/kg or nimodipine 10 mg/kg 30 min before. On the procedure: The animal study was supervised and approved by Ethics Committee of The First Affiliated Hospital of Wenzhou Medical University (WYYY-IACUC-AEC-2023-065). 12 Sprague-Dawley male rats (220 ± 20 g) were purchased from the First Affiliated Hospital of Wenzhou Medical University and randomly divided into three groups: group A (control), group B (nisoldipine), and group C (nimodipine), with 4 rats in each group. A 12 h fast with no restriction on water intake was conducted prior to the experiment. […] Group B were received nisoldipine (1 mg/kg) via gavage, while group C were received nimodipine (10 mg/kg) via the same method. Group A were given the same volume of CMC-Na to serve as a control. […] Before UPLC-MS/MS analysis, supernatant was mixed with 300 μL acetonitrile and 10 μL IS (500 ng/mL), and then vortexed for 2 min and centrifuged at 13,000 rpm for 10 min at 4°C. Finally, a 100 μL sample of supernatant was collected for UPLC-MS/MS analysis. […] SPSS Inc., Chicago, IL, United States). […] Data were represented as mean ± standard deviation (SD).

On the set-up of data set [6]: method as in Schneider et al., 2015. The settings on record: ref Schneider et al., 2015; cited from earlier work.
Details of data set [7]: method as in Harbeson et al., 2017. To be noted: male rats, gavage of 10 mg/kg ivacaftor alone, PEG400 as solvent; ref Harbeson et al., 2017; cited from earlier work.
Data set [8] addresses ivacaftor metabolism in human liver microsomes (HLM). The data set is described as follows: IC50 and inhibition mechanism (Lineweaver-Burk, Ki, αKi) on ivacaftor metabolism in HLM. Type of data set: in vitro ADME. To be noted: for Inhibition type: Lineweaver-Burk plots; for IC50: ivacaftor 6.8 μM. On the procedure:
as §1, §2, §3, §4

The subject of the next data set is CYP3A. To be noted: strong CYP3A inhibitor co-administered; FDA report; ref Garg et al., 2019; cited from earlier work.

Entries after “also recorded” stand apart in the source; their conditions may differ. Like-named read-outs stand apart in the source and are kept apart here.

The term IC50 denotes the concentration needed to halve the response being measured. A low value points to higher potency. For orientation: Km means the substrate concentration at which the rate is half of its maximum. Broadly, the AUC(0-inf) is the area under the concentration-time curve extrapolated to infinity. A word on the AUC(0-t): it is exposure summed from dosing to a finite time, without extrapolation to infinity. A high value points to more exposure. Usually Cmax stands for the maximum level reached in the sampled fluid or tissue. In general, Ki refers to a measure of affinity in units of concentration, obtained from inhibition or displacement. A low value points to tighter binding.

Turning to `CCOC(=O)C1=C(C)NC(C)=C(C(=O)OC)C1c1cccc(Cl)c1Cl` (centres unmarked) [Felodipine], the “Metabolic rate (Mean ± SD, % of control)” value in [1] is reported as 13.47 ± 1.71 % of control. The compound further registered an IC50 in [2] of 15.6 µM.
On to `CC(C)(C)c1cc(C(C)(C)C)c(NC(=O)c2c[nH]c3ccccc3c2=O)cc1O` [Ivacaftor, N-(2,4-Di-tert-butyl-5-hydroxyphenyl)-4-oxo-1,4-dihydroquinoline-3-carboxamide], for which the Km in data set [3] stood at 6.8 µM. Further, the Km in [4] turned out to be 8.8 µM. In data set [5] (n = 4), this compound displayed an AUC(0-inf) of 9360 ng·h/mL, an AUC(0-t) of 8410 ng·h/mL and a Cmax of 676 ± 242 ng/mL. Further, in data set [5] (n = 4, read-out: CLz/F of ivacaftor (converted)), the CL/F was 18.2 mL/min/kg. Moreover, the half-life in data set [5] (n = 4, read-out: t1/2 of ivacaftor (converted)) was 12.2 ± 4.8 h. In [6], the plasma protein binding is more than 97%. Also, the “AUC(0–24h) of ivacaftor” value in data set [7] is given as 22,177 ng/mL*h.
In the case of `CCOC(=O)C1=C(C)NC(C)=C(C(=O)OCC)C1c1ccccc1/C=C/C(=O)OC(C)(C)C` [Lacidipine], in [1], the “Metabolic rate (Mean ± SD, % of control)” value was 14.13 ± 1.07 % of control. In [2], the IC50 was found to be 2.17 µM.
As for `COCCOC(=O)C1=C(C)NC(C)=C(C(=O)OC(C)C)C1c1cccc([N+](=O)[O-])c1` (centres unmarked) [Nimodipine], the “Metabolic rate (Mean ± SD, % of control)” value in [1] is recorded as 7.84 ± 0.43 % of control. For the same compound, the figures for the Ki in [2] and in [8] were 3.26 µM and 5.87 µM, respectively. For the same compound, the Inhibition type entry in [2] and in data set [8] was “Competitive inhibition” in each case. In addition, the IC50 in data set [2] is 4.57 µM; in [2] (listed as nimodipine) it was less than 10 µM; in data set [8] it was 7.15 µM; in [8] (listed as nimodipine), less than 10 µM.
Turning to `COC(=O)C1=C(C)NC(C)=C(C(=O)OCC(C)C)C1c1ccccc1[N+](=O)[O-]` (centres unmarked) [Nisoldipine], the “Metabolic rate (Mean ± SD, % of control)” value in data set [1] is given as 7.29 ± 4.05 % of control. For the same compound, in data set [2], the affinity corresponds to a Ki of 3.35 µM; the α was 2.53; the Inhibition type result is “Non-competitive inhibition and competitive inhibition”; the IC50 was found to be 6.55 µM. In data set [2] (listed as nisoldipine), the Inhibition type entry is “mixed inhibition; also recorded: mixed-type of non-competitive and competitive inhibition”; the IC50 was less than 10 µM; the α turned out to be 8.48. For the same compound, in [8], the Ki amounted to 3.92 µM; the α is listed as 9.03; the Inhibition type result was “Non-competitive inhibition and competitive inhibition”; inhibition was half-maximal at 9.1 µM (IC50). Further, in data set [8] (listed as nisoldipine), the Inhibition type result was “mixed inhibition; also recorded: mixed-type of non-competitive and competitive inhibition”; the IC50 was less than 10 µM; the α is reported as 35.40.
With `C=C[C@H]1C[N@@]2CC[C@H]1C[C@@H]2[C@@H](O)c1ccnc2ccc(OC)cc12` [Quinidine], the “Metabolic rate (Mean ± SD, % of control)” value in data set [1] was 37.44 ± 4.20 % of control.
With `Oc1ccc(/C=C/c2cc(O)cc(O)c2)cc1` [Resveratrol], the “Metabolic rate (Mean ± SD, % of control)” value in data set [1] was 18.69 ± 0.46 % of control.
`O=C(NC[C@H]1CN(c2ccc(N3CCOCC3=O)cc2)C(=O)O1)c1ccc(Cl)s1` [Rivaroxaban]: the “Metabolic rate (Mean ± SD, % of control)” value in [1] is 85.62 ± 0.92 % of control.
Same read-out and setting: next, `C[C@@H]1O[C@@H](OC[C@H]2O[C@@H](Oc3c(-c4ccc(O)c(O)c4)oc4cc(O)cc(O)c4c3=O)[C@H](O)[C@@H](O)[C@@H]2O)[C@H](O)[C@H](O)[C@H]1O` [Rutin]: 91.63 ± 0.31 % of control.
As to `CC(C)N(CCCCOCC(=O)NS(C)(=O)=O)c1cnc(-c2ccccc2)c(-c2ccccc2)n1` [Selexipag], the “Metabolic rate (Mean ± SD, % of control)” value in [1] was 28.78 ± 2.21 % of control.
On to `CC(C)=CC[C@@H](O)C1=CC(=O)c2c(O)ccc(O)c2C1=O` [Shikonin], for which the “Metabolic rate (Mean ± SD, % of control)” value in data set [1] was 41.65 ± 3.13 % of control.
Same read-out and setting: under `COc1cc(C2Oc3cc([C@H]4Oc5cc(O)cc(O)c5C(=O)[C@@H]4O)ccc3OC2CO)ccc1O` (some centres unmarked) [Silibinin] stands 54.73 ± 1.11 % of control; under `N[C@@H](CC(=O)N1CCn2c(nnc2C(F)(F)F)C1)Cc1cc(F)c(F)cc1F` [Sitagliptin], 97.11 ± 2.13 % of control.
On the same count and under the same terms, next, `O=C1C=CC[C@@H]2[C@H]3CCCN4CCC[C@@H](CN12)[C@@H]34` [Sophocarpine]: 93.46 ± 2.14 % of control; `O=C1CCC[C@@H]2[C@H]3CCCN4CCC[C@H](CN12)[C@@H]34` [Sophoridine]: 109.11 ± 5.90 % of control.
The same measure, in the same setting: next, `CCCc1nc2c(C)cc(-c3nc4ccccc4n3C)cc2n1Cc1ccc(-c2ccccc2C(=O)O)cc1` [Telmisartan]: 14.98 ± 1.00 % of control; `COc1ccc2cc1Oc1ccc(cc1)C[C@H]1c3cc(c(OC)cc3CCN1C)Oc1c(OC)c(OC)cc3c1[C@H](C2)N(C)CC3` [Tetrandrine]: 71.96 ± 16.27 % of control; `COC(=O)Nc1c(N)nc(-c2nn(Cc3ccccc3F)c3ncc(F)cc23)nc1N` [Vericiguat]: 76.32 ± 1.42 % of control.
For `Cc1ccc(Sc2ccccc2N2CCNCC2)c(C)c1` [Vortioxetine], in data set [1], the “Metabolic rate (Mean ± SD, % of control)” value is 3.17 ± 0.50 % of control.
Same read-out and setting: under `CC(=O)CC(c1ccccc1)c1c(O)c2ccccc2oc1=O` (centres unmarked) [Warfarin] stands 95.32 ± 3.41 % of control.
The same measure, in the same setting: next, `CSCCNc1nc(SCCC(F)(F)F)nc2c1ncn2[C@@H]1O[C@H](COP(=O)(O)OP(=O)(O)C(Cl)(Cl)P(=O)(O)O)[C@@H](O)[C@H]1O` [cangrelor]: 105.13 ± 0.21 % of control.
For the compound `CCC(C)n1ncn(-c2ccc(N3CCN(c4ccc(OCC5COC(Cn6cncn6)(c6ccc(Cl)cc6Cl)O5)cc4)CC3)cc2)c1=O` (centres unmarked) [itraconazole], the “increase in AUC of ivacaftor when combined with the inhibitor” value with CYP3A is 15.6 fold.
Consider `CC(=O)N1CCN(c2ccc(OCC3COC(Cn4ccnc4)(c4ccc(Cl)cc4Cl)O3)cc2)CC1` (centres unmarked) [ketoconazole], for which the “increase in AUC of ivacaftor when combined with the inhibitor” value in the data set with CYP3A is on record as 8.5 fold.
With `CC(C)n1c(=O)cc(N[C@@H](C)c2ccccc2)[nH]c1=O` [mavacamten], the “Metabolic rate (Mean ± SD, % of control)” value in [1] is on record as 94.17 ± 0.21 % of control.

Values taken from PMC11424460, “Inhibitory effects of calcium channel blockers nisoldipine and nimodipine on ivacaftor metabolism and their underlying mechanism” (Frontiers in Pharmacology, 2024).
